Results reported in ChEMBL document CHEMBL1201861, “Genomics of Drug Sensitity in Cancer screening data, Wellcome Trust Sanger Institute”.

Columns and labels:
CPC-N = assay: cells; format: functional, cell-based; conditions: Homo sapiens;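 note: growth inhibition of CPC-N cells, with a cell viability assay as the readout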
Description: SANGER: Inhibition of human CPC-N cell growth in a cell viability assay.

DMS-153 = assay: cells; format: functional, cell-based; conditions: Homo sapiens
Description: SANGER: Inhibition of human DMS-153 cell growth in a cell viability assay.

DSH1 = assay: cells; format: functional, cell-based, Homo sapiens; conditions: Homo sapiens, DSH1;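 note: growth inhibition of human DSH1 cells, measured with a cell viability readout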
Description: SANGER: Inhibition of human DSH1 cell growth in a cell viability assay.

DU-145 = assay: cells; format: functional, cell-based, Homo sapiens; conditions: Homo sapiens, DU-145
Description: SANGER: Inhibition of human DU-145 cell growth in a cell viability assay.

DU-4475 = assay: cells; format: functional, cell-based; conditions: Homo sapiens
Description: SANGER: Inhibition of human DU-4475 cell growth in a cell viability assay.

EB2 = assay: cells; format: functional, cell-based; conditions: Homo sapiens;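 note: growth inhibition of EB2 cells, read out with a cell viability assay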
Description: SANGER: Inhibition of human EB2 cell growth in a cell viability assay.

G-361 = assay: cells; format: functional, cell-based, Homo sapiens; conditions: Homo sapiens, G-361
GB-1 = assay: cells; format: functional, cell-based, Homo sapiens; conditions: Homo sapiens, GB-1;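 note: growth of GB-1 cells judged by a viability assay, IC50 marks the concentration inhibiting growth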
Description: SANGER: Inhibition of human GB-1 cell growth in a cell viability assay.

H4 = assay: cells; format: functional, cell-based; conditions: Homo sapiens
Description: SANGER: Inhibition of human H4 cell growth in a cell viability assay.

HDLM-2 = assay: cells; format: functional, cell-based; conditions: Homo sapiens;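 note: cell viability assay measuring suppression of HDLM-2 proliferation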
Description: SANGER: Inhibition of human HDLM-2 cell growth in a cell viability assay.

HSC-4 = assay: cells; format: functional, cell-based, Homo sapiens; conditions: Homo sapiens, HSC-4;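 note: growth inhibition of human HSC-4 cells, read out with a cell viability assay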
Description: SANGER: Inhibition of human HSC-4 cell growth in a cell viability assay.

HT-1080 = assay: cells; format: functional, cell-based, Homo sapiens; conditions: Homo sapiens, HT-1080
Description: SANGER: Inhibition of human HT-1080 cell growth in a cell viability assay.

HT-144 = assay: cells; format: functional, cell-based, Homo sapiens; conditions: Homo sapiens, HT-144
Description: SANGER: Inhibition of human HT-144 cell growth in a cell viability assay.

HT55 = assay: cells; format: functional, cell-based, Homo sapiens; conditions: Homo sapiens, HT55;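 note: cell viability readout measuring growth inhibition of human HT55 cells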
Description: SANGER: Inhibition of human HT55 cell growth in a cell viability assay.

J82 = assay: cells; format: functional, cell-based; conditions: Homo sapiens;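 note: growth inhibition of J82 cells, read out with a cell viability assay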
Description: SANGER: Inhibition of human J82 cell growth in a cell viability assay.

LC4-1 = assay: cells; format: functional, cell-based; conditions: Homo sapiens;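 note: growth inhibition of LC4-1 cells, read out with a cell viability assay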
Description: SANGER: Inhibition of human LC4-1 cell growth in a cell viability assay.

LS-123 = assay: cells; format: functional, cell-based, Homo sapiens; conditions: Homo sapiens, LS-123
Description: SANGER: Inhibition of human LS-123 cell growth in a cell viability assay.

MC-CAR = assay: cells; format: functional, cell-based; conditions: Homo sapiens;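 note: growth inhibition of the human MC-CAR cell line, read out by a cell viability assay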
Description: SANGER: Inhibition of human MC-CAR cell growth in a cell viability assay.

MEL-JUSO = assay: cells; format: functional, cell-based, Homo sapiens; conditions: Homo sapiens, MEL-JUSO;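 note: growth inhibition of human MEL-JUSO cells, read out with a cell viability assay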
Description: SANGER: Inhibition of human MEL-JUSO cell growth in a cell viability assay.

NALM-6 = assay: cells; format: functional, cell-based; conditions: Homo sapiens;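 note: growth inhibition of NALM-6 cells, read out with a cell viability assay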
Description: SANGER: Inhibition of human NALM-6 cell growth in a cell viability assay.

NCCIT = assay: SANGER: Inhibition of human NCCIT cell growth in a cell viability assay.; format: functional, cell-based
NCI-H1395 = assay: cells; format: functional, cell-based, Homo sapiens; conditions: Homo sapiens, NCI-H1395;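 note: cell viability assay read-out quantifying reduced proliferation of human NCI-H1395 cells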
Description: SANGER: Inhibition of human NCI-H1395 cell growth in a cell viability assay.

NCI-H1522 = assay: cells; format: functional, cell-based; conditions: Homo sapiens;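 note: growth inhibition of NCI-H1522 cells, read out with a cell viability assay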
Description: SANGER: Inhibition of human NCI-H1522 cell growth in a cell viability assay.

NCI-H1792 = assay: cells; format: functional, cell-based, Homo sapiens; conditions: Homo sapiens, NCI-H1792;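 note: growth inhibition of human NCI-H1792 cells, read out as cell viability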
Description: SANGER: Inhibition of human NCI-H1792 cell growth in a cell viability assay.

NCI-H441 = assay: cells; format: functional, cell-based; conditions: Homo sapiens;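 note: growth inhibition of NCI-H441 cells, read out with a cell viability assay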
Description: SANGER: Inhibition of human NCI-H441 cell growth in a cell viability assay.

NCI-H522 = assay: cells; format: functional, cell-based, Homo sapiens; conditions: Homo sapiens, NCI-H522;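 note: cell viability assay measuring growth inhibition of human NCI-H522 cells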
Description: SANGER: Inhibition of human NCI-H522 cell growth in a cell viability assay.

NCI-H524 = assay: cells; format: functional, cell-based; conditions: Homo sapiens;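 note: growth inhibition of human NCI-H524 cells, read out through a cell viability assay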
Description: SANGER: Inhibition of human NCI-H524 cell growth in a cell viability assay.

NCI-H64 = assay: cells; format: functional, cell-based; conditions: Homo sapiens;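 note: growth inhibition of NCI-H64 cells, read out with a cell viability assay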
Description: SANGER: Inhibition of human NCI-H64 cell growth in a cell viability assay.

NCI-H748 = assay: cells; format: functional, cell-based; conditions: Homo sapiens;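 note: growth inhibition of NCI-H748 cells, measured by a cell viability assay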
Description: SANGER: Inhibition of human NCI-H748 cell growth in a cell viability assay.

NCI-H889 = assay: cells; format: functional, cell-based; conditions: Homo sapiens;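 note: cell growth inhibition of the cell line, read out with a viability assay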
Description: SANGER: Inhibition of human NCI-H889 cell growth in a cell viability assay.

PA-1 = assay: cells; format: functional, cell-based, Homo sapiens; conditions: Homo sapiens, PA-1;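 note: IC50 for suppression of PA-1 cell proliferation, determined with a cell viability read-out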
Description: SANGER: Inhibition of human PA-1 cell growth in a cell viability assay.

PC-14 = assay: cells; format: functional, cell-based, Homo sapiens; conditions: Homo sapiens, PC-14;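 note: cell viability assay measuring inhibition of PC-14 cell growth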
Description: SANGER: Inhibition of human PC-14 cell growth in a cell viability assay.

REH = assay: cells; format: functional, cell-based; conditions: Homo sapiens;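 note: growth inhibition of REH cells determined with a cell viability read-out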
Description: SANGER: Inhibition of human REH cell growth in a cell viability assay.

RPMI 8402 = assay: SANGER: Inhibition of human RPMI-8402 cell growth in a cell viability assay.; format: functional, cell-based
SIG-M5 = assay: cells; format: functional, cell-based; conditions: Homo sapiens;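 note: cell viability assay read-out, measuring how strongly growth of cultured human SIG-M5 cells is inhibited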
Description: SANGER: Inhibition of human SIG-M5 cell growth in a cell viability assay.

SK-MEL3 = assay: cells; format: functional, cell-based, Homo sapiens, SK-MEL-3; conditions: Homo sapiens, SK-MEL3;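 note: growth inhibition of human SK-MEL-3 cells, read out with a cell viability assay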
Description: SANGER: Inhibition of human SK-MEL-3 cell growth in a cell viability assay.

SNU-423 = assay: cells; format: functional, cell-based, Homo sapiens; conditions: Homo sapiens, SNU-423
Description: SANGER: Inhibition of human SNU-423 cell growth in a cell viability assay.

SR = assay: cells; format: functional, cell-based; conditions: Homo sapiens
Description: SANGER: Inhibition of human SR cell growth in a cell viability assay.

ST486 = assay: SANGER: Inhibition of human ST486 cell growth in a cell viability assay.; format: functional, cell-based
TALL-1 = assay: cells; format: functional, cell-based; conditions: Homo sapiens;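 note: growth inhibition of cultured human TALL-1 cells, read out by a cell viability assay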
Description: SANGER: Inhibition of human TALL-1 cell growth in a cell viability assay.

23132-87 = assay: cells; format: functional, cell-based, Homo sapiens; conditions: Homo sapiens
Description: SANGER: Inhibition of human 23132-87 cell growth in a cell viability assay.

A3-KAW = assay: cells; format: functional, cell-based; conditions: Homo sapiens;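 note: growth inhibition of human A3-KAW cells, read out with a cell viability assay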
Description: SANGER: Inhibition of human A3-KAW cell growth in a cell viability assay.

AU565 = assay: cells; format: functional, cell-based, Homo sapiens; conditions: Homo sapiens, AU565;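 note: cell viability assay measuring growth inhibition of human AU565 cells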
Description: SANGER: Inhibition of human AU565 cell growth in a cell viability assay.

BC-3 = assay: cells; format: functional, cell-based; conditions: Homo sapiens;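 note: cell viability assay measuring growth inhibition of human BC-3 cells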
Description: SANGER: Inhibition of human BC-3 cell growth in a cell viability assay.

TE-441-T = assay: cells; format: functional, cell-based; conditions: Homo sapiens
Description: SANGER: Inhibition of human TE-441-T cell growth in a cell viability assay.

TE-6 = assay: cells; format: functional, cell-based, Homo sapiens; conditions: Homo sapiens, TE-6;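 note: growth inhibition of TE-6 cells, read out with a cell viability assay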
Description: SANGER: Inhibition of human TE-6 cell growth in a cell viability assay.

THP-1 = assay: cells; format: functional, cell-based; conditions: Homo sapiens;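 note: growth inhibition of THP-1 cells, read out via a cell viability assay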
Description: SANGER: Inhibition of human THP-1 cell growth in a cell viability assay.

TUR = assay: cells; format: functional, cell-based; conditions: Homo sapiens;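 note: growth inhibition of human TUR cells, read out with a cell viability assay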
Description: SANGER: Inhibition of human TUR cell growth in a cell viability assay.

U-698-M = assay: cells; format: functional, cell-based; conditions: Homo sapiens
Description: SANGER: Inhibition of human U-698-M cell growth in a cell viability assay.

no-11 = assay: cells; format: functional, cell-based, Homo sapiens; conditions: Homo sapiens;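 note: growth inhibition of human NO-11 cells, read out with a cell viability assay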
Description: SANGER: Inhibition of human no-11 cell growth in a cell viability assay.

CGTH-W-1 = assay: cells; format: functional, cell-based, Homo sapiens; conditions: Homo sapiens, CGTH-W-1;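 note: growth inhibition of human CGTH-W-1 cells measured by cell viability assay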
Description: SANGER: Inhibition of human CGTH-W-1 cell growth in a cell viability assay.

CMK = assay: cells; format: functional, cell-based; conditions: Homo sapiens;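 note: growth inhibition of CMK cells, read out as cell viability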
Description: SANGER: Inhibition of human CMK cell growth in a cell viability assay.

COLO-680N = assay: cells; format: functional, cell-based, Homo sapiens; conditions: Homo sapiens, COLO-680N;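 note: cell viability assay used to measure inhibition of COLO-680N cell growth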
Description: SANGER: Inhibition of human COLO-680N cell growth in a cell viability assay.

Question: What does the source list for `COc1cc([C@@H]2c3cc4c(cc3[C@@H](O[C@@H]3O[C@@H]5CO[C@@H](C)O[C@H]5[C@H](O)[C@H]3O)[C@H]3COC(=O)[C@H]23)OCO4)cc(OC)c1O` [ETOPOSIDE]?
Answer: IC50 (CPC-N): > 16 µM; IC50 (DMS-153): > 16 µM; IC50 (DSH1): 2.36 µM; IC50 (DU-145): 0.591 µM; IC50 (DU-4475): 0.0962 µM; IC50 (EB2): 0.391 µM; IC50 (G-361): 0.834 µM; IC50 (GB-1): 1.61 µM; IC50 (H4): 0.297 µM; IC50 (HDLM-2): 13.8 µM; IC50 (HSC-4): 1.26 µM; IC50 (HT-1080): 0.109 µM; IC50 (HT-144): 0.0201 µM; IC50 (HT55): > 16 µM; IC50 (J82): 3.34 µM; IC50 (LC4-1): 3.23 µM; IC50 (LS-123): 4.02 µM; IC50 (MC-CAR): 0.58 µM; IC50 (MEL-JUSO): 0.657 µM; IC50 (NALM-6): 0.206 µM; IC50 (NCCIT): > 16 µM; IC50 (NCI-H1395): > 16 µM; IC50 (NCI-H1522): > 16 µM; IC50 (NCI-H1792): > 16 µM; IC50 (NCI-H441): 11.2 µM; IC50 (NCI-H522): 3.36 µM; IC50 (NCI-H524): > 16 µM; IC50 (NCI-H64): 4 µM; IC50 (NCI-H748): 0.871 µM; IC50 (NCI-H889): > 16 µM; IC50 (PA-1): 0.132 µM; IC50 (PC-14): 9.72 µM; IC50 (REH): 0.224 µM; IC50 (RPMI 8402): 0.271 µM; IC50 (SIG-M5): 0.131 µM; IC50 (SK-MEL3): 10.1 µM; IC50 (SNU-423): 1.75 µM; IC50 (SR): 0.443 µM; IC50 (ST486): 2.25 µM; IC50 (TALL-1): > 16 µM; IC50 (23132-87): 0.501 µM; IC50 (A3-KAW): 0.358 µM; IC50 (AU565): 2.61 µM; IC50 (BC-3): 2.48 µM; IC50 (TE-441-T): > 16 µM; IC50 (TE-6): > 16 µM; IC50 (THP-1): > 16 µM; IC50 (TUR): 0.722 µM; IC50 (U-698-M): 12.5 µM; IC50 (no-11): 7.56 µM; IC50 (CGTH-W-1): 0.0574 µM; IC50 (CMK): 2.68 µM; IC50 (COLO-680N): 8.26 µM

Question: Which results are given for `Cc1cnc(-c2cnc(NCCNc3ccc(C#N)cn3)nc2-c2ccc(Cl)cc2Cl)[nH]1` [LADUVIGLUSIB]?
Answer: IC50 (CPC-N): > 2.56 µM; IC50 (DMS-153): > 2.56 µM; IC50 (DSH1): > 2.56 µM; IC50 (DU-145): > 2.56 µM; IC50 (DU-4475): > 2.56 µM; IC50 (EB2): > 2.56 µM; IC50 (G-361): > 2.56 µM; IC50 (GB-1): > 2.56 µM; IC50 (H4): > 2.56 µM; IC50 (HDLM-2): > 2.56 µM; IC50 (HSC-4): > 2.56 µM; IC50 (HT-1080): > 2.56 µM; IC50 (HT-144): > 2.56 µM; IC50 (HT55): > 2.56 µM; IC50 (J82): > 2.56 µM; IC50 (LC4-1): > 2.56 µM; IC50 (LS-123): > 2.56 µM; IC50 (MC-CAR): > 2.56 µM; IC50 (MEL-JUSO): > 2.56 µM; IC50 (NALM-6): > 2.56 µM; IC50 (NCCIT): > 2.56 µM; IC50 (NCI-H1395): > 2.56 µM; IC50 (NCI-H1522): > 2.56 µM; IC50 (NCI-H1792): > 2.56 µM; IC50 (NCI-H441): > 2.56 µM; IC50 (NCI-H522): > 2.56 µM; IC50 (NCI-H524): > 2.56 µM; IC50 (NCI-H64): > 2.56 µM; IC50 (NCI-H748): > 2.56 µM; IC50 (NCI-H889): > 2.56 µM; IC50 (PA-1): > 2.56 µM; IC50 (PC-14): > 2.56 µM; IC50 (REH): > 2.56 µM; IC50 (RPMI 8402): > 2.56 µM; IC50 (SIG-M5): > 2.56 µM; IC50 (SK-MEL3): > 2.56 µM; IC50 (SNU-423): 2.5 µM; IC50 (SR): > 2.56 µM; IC50 (ST486): > 2.56 µM; IC50 (TALL-1): > 2.56 µM; IC50 (23132-87): > 2.56 µM; IC50 (A3-KAW): > 2.56 µM; IC50 (AU565): > 2.56 µM; IC50 (BC-3): > 2.56 µM; IC50 (TE-441-T): > 2.56 µM; IC50 (TE-6): > 2.56 µM; IC50 (THP-1): > 2.56 µM; IC50 (TUR): > 2.56 µM; IC50 (U-698-M): > 2.56 µM; IC50 (no-11): > 2.56 µM; IC50 (CGTH-W-1): > 2.56 µM; IC50 (CMK): > 2.56 µM; IC50 (COLO-680N): > 2.56 µM
